# Source: patent US9834542B2, “LXR modulators” (BRISTOL-MYERS SQUIBB COMPANY, priority 2013, dated 2017)
# Target: T1, LXRβ (Homo sapiens, UniProt P55055)
# T1 construct: Co-transfection expression plasmids, comprising full-length LXRα (pCMX-h LXRα[…] or LXRβ (pCMX-hLXRβ)); expressed in transfected cells; host or cells: CV-1 African Green Monkey Kidney Cells
# T1 sequence (P55055 1-460): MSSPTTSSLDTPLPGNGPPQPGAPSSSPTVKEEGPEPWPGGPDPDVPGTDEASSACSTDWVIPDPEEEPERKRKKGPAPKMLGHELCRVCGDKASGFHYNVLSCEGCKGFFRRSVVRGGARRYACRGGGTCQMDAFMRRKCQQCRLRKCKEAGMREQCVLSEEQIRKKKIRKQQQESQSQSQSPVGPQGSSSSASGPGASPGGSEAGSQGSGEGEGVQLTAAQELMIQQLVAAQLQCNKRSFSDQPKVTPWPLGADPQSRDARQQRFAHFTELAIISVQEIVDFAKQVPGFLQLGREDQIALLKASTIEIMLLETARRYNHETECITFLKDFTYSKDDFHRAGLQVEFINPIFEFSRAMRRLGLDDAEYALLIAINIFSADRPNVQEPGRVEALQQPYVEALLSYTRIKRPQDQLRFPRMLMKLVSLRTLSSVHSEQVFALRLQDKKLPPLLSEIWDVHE
# T1 sequence (P19793 1-462 partner): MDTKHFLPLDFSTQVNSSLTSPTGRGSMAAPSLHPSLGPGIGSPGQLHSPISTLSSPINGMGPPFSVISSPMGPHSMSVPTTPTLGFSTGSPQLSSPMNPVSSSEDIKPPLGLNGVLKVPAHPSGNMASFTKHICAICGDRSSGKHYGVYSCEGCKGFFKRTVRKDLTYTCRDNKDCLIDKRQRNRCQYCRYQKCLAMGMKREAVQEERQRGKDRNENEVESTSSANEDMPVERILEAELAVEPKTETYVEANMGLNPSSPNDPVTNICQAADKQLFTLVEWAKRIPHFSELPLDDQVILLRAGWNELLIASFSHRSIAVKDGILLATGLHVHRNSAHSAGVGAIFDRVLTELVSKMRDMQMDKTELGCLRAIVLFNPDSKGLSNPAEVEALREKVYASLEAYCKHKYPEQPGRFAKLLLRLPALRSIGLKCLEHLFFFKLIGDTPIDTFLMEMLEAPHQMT
# Assay: Co-transfection assay (LXRE luciferase reporter), LXRβ
# Assay type: cell-based
# Conditions: for EC50: CV-1 cells transfected with pCMX-hLXRβ and LXREx1-Tk-Luciferase, 20 hours incubation; for Emax: LXRβ co-transfection, relative to high control 1-(2,4-difluorobenzyl)-2-oxo-6-(4-phenoxyphenyl)-4-(trifluoromethyl)-1,2-dihydropyridine-3-carbonitrile, read-out: % Efficacy
# Procedure, shortened: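 CV-1 / pCMX-hLXRβ + LXREx1-Tk-Luc + β-gal; cpd 20 h, 37 °C, ≤0.5% DMSO; Steady-Glo luminescence. 11-pt ½-log curves, duplicate wells, sigmoidal fit → EC50; % efficacy vs high-control agonist, DMSO low control; mean of ≥2 expts.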
EC50 [nM],Emax [%],SMILES
85,96,"Cc1nc(-c2cc(-c3cccc(S(C)(=O)=O)c3)ccc2-n2cc(C(F)(F)F)nc2C)c(-c2ccc(N(C)C)cc2)o1 [Example 500, N,N-dimethyl-4-(2-methyl-4-(4-(2-methyl-4-(trifluoromethyl)-1H-imidazol-1-yl)-3′-(methylsulfonyl)biphenyl-3-yl)oxazol-5-yl)aniline]"
758,96,"Cc1nc(C(F)(F)F)cn1-c1ccc(-c2cccc(S(C)(=O)=O)c2)cc1-n1nncc1-c1cccc(OC(F)F)c1 [Example 37, 5-{3-[(difluoromethyl)oxy]phenyl}-1-{3′-(methylsulfonyl)-4-[2-methyl-4-(trifluoromethyl)-1H-imidazol-1-yl]biphenyl-3-yl}-1H-1,2,3-triazole]"
358,85,"Cc1nc(-c2cc(-c3cccc(S(C)(=O)=O)c3)ccc2-n2cc(C(F)(F)F)nc2C)c(-c2ccc(Cl)cn2)o1 [Example 431, 5-(5-chloropyridin-2-yl)-2-methyl-4-(4-(2-methyl-4-(trifluoromethyl)-1H-imidazol-1-yl)-3′-(methylsulfonyl)biphenyl-3-yl)oxazole]"
412,82,"Cc1nc(C(F)(F)F)cn1-c1ccc(-c2cccc(S(C)(=O)=O)c2)cc1-c1oc(CCN(C)C)nc1-c1ccc(OC(F)(F)F)cc1 [Example 628, N,N-dimethyl-2-(5-(4-(2-methyl-4-(trifluoromethyl)-1H-imidazol-1-yl)-3′-(methylsulfonyl)-[1,1′-biphenyl]-3-yl)-4-(4-(trifluoromethoxy)phenyl)oxazol-2-yl)ethanamine]"
206,81,"COCS(=O)(=O)c1cccc(-c2ccc(-n3cc(C(F)(F)F)nc3C)c(-c3nc(C)oc3-c3ccc(OC(F)(F)F)cc3)c2)c1 [Example 539, 4-(3′-((methoxymethyl)sulfonyl)-4-(2-methyl-4-(trifluoromethyl)-1H-imidazol-1-yl)-[1,1′-biphenyl]-3-yl)-2-methyl-5-(4-(trifluoromethoxy)phenyl)oxazole]"
514,66,"Cc1nc(C(F)(F)F)cn1-c1ccc(-c2cccc(S(C)(=O)=O)c2)cc1-c1nc(CCO)oc1-c1ccc(OC(F)(F)F)cc1 [Example 524, 2-(4-(4-(2-methyl-4-(trifluoromethyl)-1H-imidazol-1-yl)-3′-(methylsulfonyl)-[1,1′-biphenyl]-3-yl)-5-(4-(trifluoromethoxy)phenyl)oxazol-2-yl)ethanol]"
87,76,"Cc1nc(-c2cc(-c3cccc(S(C)(=O)=O)c3)ccc2-n2cc(C(F)(F)F)nc2C)c(-c2ccc(Cl)c(F)c2)o1 [Example 498, 5-(4-chloro-3-fluorophenyl)-2-methyl-4-(4-(2-methyl-4-(trifluoromethyl)-1H-imidazol-1-yl)-3′-(methylsulfonyl)biphenyl-3-yl)oxazole]"
942,98,"CS(=O)(=O)c1cccc(-c2ccc(-n3cc(C(F)(F)F)nc3Cl)c(-n3nncc3-c3ccc(Cl)cc3Cl)c2)c1 [Example 143, 1-{4-[2-chloro-4-(trifluoromethyl)-1H-imidazol-1-yl]-3′-(methylsulfonyl)biphenyl-3-yl}-5-(2,4-dichlorophenyl)-1H-1,2,3-triazole]"
552,68,"Cc1nc(-c2cc(-c3cc(F)c(CO)c(S(C)(=O)=O)c3)ccc2-n2cc(C(F)(F)F)nc2C)c(-c2ccc(C(F)(F)F)nc2)o1 [Example 568, (3-fluoro-4′-(2-methyl-4-(trifluoromethyl)-1H-imidazol-1-yl)-3′-(2-methyl-5-(6-(trifluoromethyl)pyridin-3-yl)oxazol-4-yl)-5-(methylsulfonyl)-[1,1′-biphenyl]-4-yl)methanol]"
74,83,"Cc1nc(-c2cc(-c3cccc(S(=O)(=O)C4CC4)c3)ccc2-n2cc(C(F)(F)F)nc2C)c(-c2ccc(OC(F)F)c(F)c2)o1 [Example 429, 4-(3′-(cyclopropylsulfonyl)-4-(2-methyl-4-(trifluoromethyl)-1H-imidazol-1-yl)biphenyl-3-yl)-5-(4-(difluoromethoxy)-3-fluorophenyl)-2-methyloxazole]"
2560,67,"Cc1nc(C2CC2)cn1-c1ccc(-c2cccc(S(C)(=O)=O)c2)cc1-n1nncc1-c1ccc(Cl)cc1 [Example 228, 5-(4-chlorophenyl)-1-(4-(4-cyclopropyl-2-methyl-1H-imidazol-1-yl)-3′-(methylsulfonyl)-[1,1′-biphenyl]-3-yl)-1H-1,2,3-triazole]"
61,74,"Cc1nc(-c2cc(-c3cccc(S(C)(=O)=O)c3)ccc2-n2cc(Cl)nc2C)c(-c2ccc3c(c2)OC(F)(F)O3)o1 [Example 423, 4-(4-(4-chloro-2-methyl-1H-imidazol-1-yl)-3′-(methylsulfonyl)biphenyl-3-yl)-5-(2,2-difluorobenzo[d][1,3]dioxol-5-yl)-2-methyloxazole]"
702,41,"Cc1nc(C(F)(F)F)cn1-c1ccc(-c2cccc(S(C)(=O)=O)c2)cc1-c1ocnc1Cc1ccc(OC(F)(F)F)cc1 [Example 636, 5-(4-(2-methyl-4-(trifluoromethyl)-1H-imidazol-1-yl)-3′-(methylsulfonyl)-[1,1′-biphenyl]-3-yl)-4-(4-(trifluoromethoxy)benzyl)oxazole]"
54,86,"Cc1nc(-c2ccc(OC(F)(F)F)cc2)c(-c2cc(-c3cccc(S(C)(=O)=O)c3)ccc2-n2cc(C(F)(F)F)nc2C)o1 [Example 604, 2-methyl-5-(4-(2-methyl-4-(trifluoromethyl)-1H-imidazol-1-yl)-3′-(methylsulfonyl)-[1,1′-biphenyl]-3-yl)-4-(4-(trifluoromethoxy)phenyl)oxazole]"
12,61,"Cc1cc(-c2cc(-c3ccc(CO)c(S(C)(=O)=O)c3)ccc2-n2cc(C(F)(F)F)nc2C)n(-c2ccc3c(c2)OC(F)(F)O3)n1 [Example 300, (3′-(1-(2,2-difluorobenzo[d][1,3]dioxol-5-yl)-3-methyl-1H-pyrazol-5-yl)-4′-(2-methyl-4-(trifluoromethyl)-1H-imidazol-1-yl)-3-(methylsulfonyl)biphenyl-4-yl)methanol]"
1160,55,COc1ncc(F)cc1-c1oc(C)nc1-c1cc(-c2cccc(S(C)(=O)=O)c2)ccc1-n1cc(C(F)(F)F)nc1C [Example 400]
133,20,"Cc1nc(C(F)(F)F)cn1-c1ccc(-c2cc(F)c(CO)c(S(C)(=O)=O)c2)cc1-c1nc(C(C)(C)CO)oc1-c1ccc(OC(F)(F)F)cc1 [Example 528, 2-(4-(3′-fluoro-4′-(hydroxymethyl)-4-(2-methyl-4-(trifluoromethyl)-1H-imidazol-1-yl)-5′-(meththsulfonyl)-[1,1′-biphenyl]-3-yl)-5-(4-(trifluoromethoxy)phenyl)oxazol-2-yl)-2-methylpropan-1-ol]"
13,71,"Cc1nc(C(F)(F)F)cn1-c1ccc(-c2cc(F)c(CO)c(S(C)(=O)=O)c2)cc1-c1nc(CC(C)C)oc1-c1ccc(OC(F)(F)F)cc1 [Example 561, (3-fluoro-3′-(2-isobutyl-5-(4-(trifluoromethoxy)phenyl)oxazol-4-yl)-4′-(2-methyl-4-(trifluoromethyl)-1H-imidazol-1-yl)-5-(methylsulfonyl)-[1,1′-biphenyl]-4-yl)methanol]"
